Tests used:
Assay type in all cases: physicochemical
[1] = Particle sizing assay (Zetasizer Nano ZS), in vivo formulations; details: lipid:siRNA 25:1
Summary of the method: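 Lipid–siRNA particles formed by ethanol injection into pH 4.0 citrate buffer at 65 °C, diluted in PBS pH 7.4, diafiltered (100K) and sterile-filtered. Size and PDI by dynamic light scattering, 633 nm He–Ne laser, 173° backscatter, 25 °C, water viscosity/refractive index.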

[2] = Particle sizing by dynamic light scattering (DynaPro plate reader), in vitro formulations; details: in vitro formulation b: Cationic lipid/PEG-cholesterol/DSPC/Chol 45/10/15/30 wt %, lipid:siRNA 25:1
Experimental: The siRNA concentrations were measured using Quanti-iT RiboGreen RNA reagent (Molecular Probes, (R11490)). Vesicle sizes were characterized by dynamic light scattering with a DynaPro™ Plate Reader (Wyatt Technology) in 96-well half-area UV plate (Coring) after diluting the formulation sample (20 μL) in phosphate buffered saline (80 μL) at a pH of about 7-8. A 1% agarose gel-based assay was used for analyzing nuclease degradation and protection. Encapsulation efficiency (EE) was calculated using data obtained from a RiboGreen assay.
Particle sizes and size distributions (PDI) were characterized by using dynamic light scattering (DLS). A DLS plate reader (Dynapro™, Wyatt Technology) was used for the DLS measurement. This DLS plate reader uses an 830 nm laser and the scattering angle is 158°. It also can control temperature from 4° C. to 70° C. A 96-well format was employed for the samples.
Samples for DLS analysis were prepared by mixing 20 μL of each sample stock solution with 80 μL PBS directly in the 96-well plate (#3697, Corning). Sample mixing was accomplished using a microplate shaker (Orbis, Mikura Ltd.). Plates were read at 20° C. with an acquisition time of 50 seconds for each sample, and data was analyzed with Wyatt Technology's Dynamics V6 software. To rule out potential multiple scattering artifacts, a second plate at 4-fold reduced sample concentrations was independently prepared by mixing 5 μL stock solutions with 95 μL PBS. Under our experimental conditions the results at the two concentrations were very similar, and the final reported result for each sample represents the average of values obtained from the two plates.

[3] = RiboGreen assay of siRNA encapsulation efficiency, in vitro formulations of Lipid-Based Particles; details: in vitro formulation b: Cationic lipid/PEG-cholesterol/DSPC/Chol 45/10/15/30 wt %, lipid:siRNA 25:1
Summary of the method: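 siRNA in pH 4.0 citrate buffer (20 mM, 0.2 mg/mL) mixed at 60 °C with an ethanolic lipid blend (cationic lipid, cholesterol, non-cationic lipid, PEG-lipid), then diluted with PBS pH 7.4. Encapsulation efficiency from RiboGreen fluorescence (480/520 nm) with siRNA released by ethanol, Triton X-100 or phenol/chloroform.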

[4] = in vivo formulation A: Cationic lipid/Example 73/DSPC/Chol 45/10/15/30 wt %
[5] = in vivo formulation B: Cationic lipid/PEG-cholesterol/DSPC/Chol 45/10/15/30 wt %
[6] = in vivo formulation C: Cationic lipid/Pal-PEG-Cera/DSPC/Chol 45/10/15/30 wt %
[7] = in vivo formulation D: Cationic lipid/Example 66/DSPC/Chol 45/10/15/30 wt %
[8] = in vivo formulation E: Cationic lipid/Example 53/DSPC/Chol 45/10/15/30 wt %
[9] = in vivo formulation F: Cationic lipid/Example 54/DSPC/Chol 45/10/15/30 wt %
[10] = in vivo formulation G: Cationic lipid/Example 55/DSPC/Chol 45/10/15/30 wt %
[11] = in vivo formulation H: Cationic lipid/PEG-DMPE/DSPC/Chol 45/10/15/30 wt %
[12] = in vivo formulation J: Cationic lipid/PEG-DSPE/DSPC/Chol 45/10/15/30 wt %
[13] = in vivo formulation K: Cationic lipid/PEG-DMG/DSPC/Chol 45/10/15/30 wt %
[14] = in vivo formulation M: Cationic lipid/PEG-DSG/DSPC/Chol 45/10/15/30 wt %
[15] = in vivo formulation NN: Cationic lipid/Example 74/DSPC/Chol 45/10/15/30 wt %
[16] = in vivo formulation OO: Cationic lipid/Example 75/DSPC/Chol 45/10/15/30 wt %
[17] = in vivo formulation P: Cationic lipid/PEG-DSPE/DOPE/Chol 45/10/15/30 wt %
[18] = in vivo formulation PP: Cationic lipid/Example 73/Chol 45/10/45 wt %
[19] = in vivo formulation Q: Cationic lipid/PEG-DSPE/DOPC/Chol 45/10/15/30 wt %
[20] = in vivo formulation R: Cationic lipid/PEG-DSPE/SPC/Chol 45/10/15/30 wt %

- Size [1, 4]: 96 nm
- Size distribution (PDI) [1, 4]: (0.06)
- Size [1, 5]: 327 nm
- Size distribution (PDI) [1, 5]: (0.198)
- Size [1, 6]: 141 nm
- Size distribution (PDI) [1, 6]: (0.026)
- Size [1, 7]: 164 nm
- Size distribution (PDI) [1, 7]: (0.104)
- Size [1, 8]: 169 nm
- Size distribution (PDI) [1, 8]: (0.163)
- Size [1, 9]: 152 nm
- Size distribution (PDI) [1, 9]: (0.08)
- Size [1, 10]: 164 nm
- Size distribution (PDI) [1, 10]: (0.104)
- Size [1, 11]: 168 nm
- Size distribution (PDI) [1, 11]: (0.007)
- Size [1, 12]: 119.7 nm
- Size distribution (PDI) [1, 12]: (0.006)
- Size [1, 13]: 155 nm
- Size distribution (PDI) [1, 13]: (0.052)
- Size [1, 14]: 116.5 nm
- Size distribution (PDI) [1, 14]: (0.029)
- Size [1, 15]: 140 nm
- Size distribution (PDI) [1, 15]: (0.029)
- Size [1, 16]: 142 nm
- Size distribution (PDI) [1, 16]: (0.029)
- Size [1, 17]: 153.7 nm
- Size distribution (PDI) [1, 17]: (0.061)
- Size [1, 18]: 108.7 nm
- Size distribution (PDI) [1, 18]: (0.094)
- Size [1, 19]: 144.1 nm
- Size distribution (PDI) [1, 19]: (0.01)
- Size [1, 20]: 159.6 nm
- Size distribution (PDI) [1, 20]: (0.036)
- Size [2]: 135.4 nm
- % Encapsulation Efficiency [3]: 97.0%
SMILES: CCCCC/C=C\C/C=C\CCCCCCCCOCC(CCN1CCCC1)OCCCCCCCC/C=C\C/C=C\CCCCC (stereo not drawn) [Example 24, 1-{3,4-bis[(9Z,12Z)-octadeca-9,12-dienyloxy]butyl}pyrrolidine]

— patent US20100055169A1, “CATIONIC LIPIDS AND USES THEREOF” (ABBOTT LABORATORIES, priority 2008, published 2010)
